Several values for one entry are separate records, joined by “and”; a condition that tells them apart may be missing. Equal values may be shown once. Numbers after ± are expanded uncertainties.
Experiment: mn = molality of the nth substance listed, in mol/kg
Settings: 101 kPa, Liquid; for viscosity: Capillary tube (Ostwald / Ubbelohde) method; for mass density: Vibrating tube method

Cc1ncc(CO)c(CO)c1O.Cl [5-hydroxy-6-methyl-3,4-pyridinedimethanol hydrochloride] + O
Settings	mass density, 293.15 K	mass density, 303.15 K [kg/m3]	mass density, 313.15 K	mass density, 323.15 K [kg/m3]	viscosity, 293.15 K [mPa·s]	viscosity, 303.15 K	viscosity, 313.15 K	viscosity, 323.15 K [mPa·s]
m1 = 0.0999	1004.23 ± 1 kg/m3	1001.56 ± 1	998.03 ± 1 kg/m3	993.8 ± 1	1.044 ± 0.022	0.829 ± 0.018 mPa·s	0.678 ± 0.014 mPa·s	0.568 ± 0.012
m1 = 0.1	1004.23 ± 1 kg/m3	1001.57 ± 1	998.04 ± 1 kg/m3	993.81 ± 1	1.044 ± 0.022	0.83 ± 0.017 mPa·s	0.679 ± 0.014 mPa·s	0.568 ± 0.012
m1 = 0.1008	1004.28 ± 1 kg/m3	1001.61 ± 1	998.1 ± 1 kg/m3	993.86 ± 1	1.044 ± 0.022	0.83 ± 0.018 mPa·s	0.679 ± 0.014 mPa·s	0.568 ± 0.012
m1 = 0.1992	1010 ± 1 kg/m3	1007.23 ± 1	1003.65 ± 1 kg/m3	999.27 ± 1	1.084 ± 0.023	0.861 ± 0.018 mPa·s	0.703 ± 0.015 mPa·s	0.587 ± 0.012
m1 = 0.2016	1010.1 ± 1 kg/m3 and 1010.09 ± 1 kg/m3	1007.34 ± 1	1003.75 ± 1 kg/m3 and 1003.74 ± 1 kg/m3	999.43 ± 1	1.085 ± 0.023	0.861 ± 0.018 mPa·s	0.704 ± 0.015 mPa·s and 0.703 ± 0.015 mPa·s	0.587 ± 0.012
m1 = 0.2025	1010.19 ± 1 kg/m3	1007.42 ± 1	1003.85 ± 1 kg/m3	999.49 ± 1	1.085 ± 0.023	0.862 ± 0.018 mPa·s	0.704 ± 0.015 mPa·s	0.589 ± 0.013
m1 = 0.3	1015.66 ± 1 kg/m3 and 1015.67 ± 1 kg/m3	1012.81 ± 1	1009.15 ± 1 kg/m3	1004.74 ± 1	1.127 ± 0.024	0.894 ± 0.019 mPa·s and 0.893 ± 0.019 mPa·s	0.729 ± 0.015 mPa·s	0.608 ± 0.013
m1 = 0.3014	1015.74 ± 1 kg/m3	1012.88 ± 1	1009.21 ± 1 kg/m3	1004.83 ± 1	1.127 ± 0.024	0.894 ± 0.019 mPa·s	0.729 ± 0.015 mPa·s	0.609 ± 0.013
m1 = 0.3999	1021.12 ± 1 kg/m3 and 1021.11 ± 1 kg/m3	1018.15 ± 1	1014.45 ± 1 kg/m3	1010.01 ± 1	1.169 ± 0.025	0.926 ± 0.019 mPa·s	0.755 ± 0.016 mPa·s	0.629 ± 0.013
m1 = 0.4001	1021.16 ± 1 kg/m3	1018.19 ± 1	1014.46 ± 1 kg/m3	1010.02 ± 1	1.172 ± 0.025	0.926 ± 0.02 mPa·s	0.755 ± 0.016 mPa·s	0.629 ± 0.013

Reference: the NIST ThermoML archive (doi:10.1021/acs.jced.5b00114)
